This is an account of results in ChEMBL document CHEMBL1140637, “QSAR modeling of matrix metalloproteinase inhibition by N-hydroxy-alpha-phenylsulfonylacetamide derivatives” (Bioorg Med Chem, 2007).

Assay [1] has as its target T1, Interstitial collagenase (Homo sapiens) (UniProt P03956).
T1 sequence (whole entry): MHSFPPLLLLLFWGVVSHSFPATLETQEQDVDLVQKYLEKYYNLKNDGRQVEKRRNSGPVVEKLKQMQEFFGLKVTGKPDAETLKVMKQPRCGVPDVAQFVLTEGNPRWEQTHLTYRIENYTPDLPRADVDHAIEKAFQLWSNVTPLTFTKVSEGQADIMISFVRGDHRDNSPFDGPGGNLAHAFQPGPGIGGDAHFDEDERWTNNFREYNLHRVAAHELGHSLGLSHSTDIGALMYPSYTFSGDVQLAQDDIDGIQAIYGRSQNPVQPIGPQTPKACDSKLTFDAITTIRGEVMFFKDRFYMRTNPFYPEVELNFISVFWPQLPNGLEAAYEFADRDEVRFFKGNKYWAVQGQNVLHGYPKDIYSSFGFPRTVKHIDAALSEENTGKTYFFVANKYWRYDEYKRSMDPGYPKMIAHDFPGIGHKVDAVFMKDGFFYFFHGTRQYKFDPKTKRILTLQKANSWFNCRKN
Description: Inhibition of MMP1.

For assay [2], the target named is Matrix metalloproteinase-9 (Homo sapiens) (UniProt P14780). Description: Inhibition of MMP9.
Matrix metalloproteinase-9 (Homo sapiens), sequence (P14780 whole entry): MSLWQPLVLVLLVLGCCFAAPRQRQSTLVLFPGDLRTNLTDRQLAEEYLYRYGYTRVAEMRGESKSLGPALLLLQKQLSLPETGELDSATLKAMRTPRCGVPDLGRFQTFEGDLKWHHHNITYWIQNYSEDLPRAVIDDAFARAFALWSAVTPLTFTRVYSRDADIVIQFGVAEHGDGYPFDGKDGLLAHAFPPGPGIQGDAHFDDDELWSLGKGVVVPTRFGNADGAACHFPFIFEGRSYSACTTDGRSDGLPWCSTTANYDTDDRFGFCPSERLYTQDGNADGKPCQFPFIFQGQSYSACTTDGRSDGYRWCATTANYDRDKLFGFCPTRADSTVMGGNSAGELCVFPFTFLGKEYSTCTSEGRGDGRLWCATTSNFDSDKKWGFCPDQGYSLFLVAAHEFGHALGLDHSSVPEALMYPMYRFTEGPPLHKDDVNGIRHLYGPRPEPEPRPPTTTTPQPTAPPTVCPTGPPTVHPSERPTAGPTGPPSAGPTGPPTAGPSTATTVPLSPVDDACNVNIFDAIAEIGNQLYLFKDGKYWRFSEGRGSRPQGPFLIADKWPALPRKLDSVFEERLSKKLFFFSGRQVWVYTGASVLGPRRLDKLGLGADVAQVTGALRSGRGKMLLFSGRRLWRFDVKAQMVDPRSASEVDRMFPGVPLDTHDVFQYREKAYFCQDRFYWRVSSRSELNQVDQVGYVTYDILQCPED
In assay [3] the target is Collagenase 3 (Homo sapiens) (UniProt P45452).

Regarding `COc1ccc(S(=O)(=O)C(C)(C/C=C/c2ccccc2)C(=O)NO)cc1` (stereo unspecified), the log(10^6/IC50) in assay [1] worked out at 3.52; in assay [2], 4.8; in assay [3], 4.92.
On to `COc1ccc(S(=O)(=O)C2(C(=O)NO)CCN(CCCOc3ccccc3)CC2)cc1`, for which the results for the log(10^6/IC50) in assay [1], in assay [2] and in assay [3] were 2.92, 4.36 and 5.4, respectively.
As for `O=C(NO)C1(S(=O)(=O)c2ccc(Oc3ccc(Cl)cc3)cc2)CCN(Cc2ccccc2)CC1`, the log(10^6/IC50) was found to be 3.1 in assay [1], 6 in assay [2] and 6 in assay [3].
Consider `CCCCOc1ccc(S(=O)(=O)C2(C(=O)NO)CCN(CCCC)CC2)cc1`, for which the log(10^6/IC50) in assay [2] came to 4.55; in assay [3], 5.7.
With `COc1ccc(S(=O)(=O)C2(C(=O)NO)CCN(Cc3ccc(C)cc3)CC2)cc1`, the log(10^6/IC50) in assay [1] turned out to be 3.31; in assay [2] it was 4.77; in assay [3] it was 5.7.
With `COc1ccc(S(=O)(=O)C2(C(=O)NO)CCN(CCOc3ccccc3)CC2)cc1`, the log(10^6/IC50) in assay [1] amounted to 3.2; in assay [2], 4.59; in assay [3] it was 5.52.
The matching figures for `COc1ccc(S(=O)(=O)[C@](C)(Cc2ccc(OCCCN3CCN(c4cccc(Cl)c4)CC3)cc2)C(=O)NO)cc1`: 3.23, 5.15 and 5.4.
The matching figures for `COc1ccc(S(=O)(=O)C2(C(=O)NO)CCN(Cc3ccc(OCCN4CCCCC4)cc3)CC2)cc1`: 3.41, 5.52 and 5.52.
As for `COc1ccc(S(=O)(=O)[C@](CCC(C)C)(Cc2cccnc2)C(=O)NO)cc1`, the log(10^6/IC50) in assay [1] came to 3.24; in assay [3], 4.05.
`COc1ccc(S(=O)(=O)C2(C(=O)NO)CCN(Cc3ccc(-c4cccs4)cc3)CC2)cc1`: the log(10^6/IC50) was found to be 3.27 in assay [1], 4.96 in assay [2] and 5.52 in assay [3].
On to `CCCCOc1ccc(S(=O)(=O)C2(C(=O)NO)CCN(Cc3ccc(Cl)c(Cl)c3)CC2)cc1`, for which the log(10^6/IC50) in assay [1] turned out to be 2.44; in assay [2], 4.7; in assay [3], 5.3.
`COc1ccc(S(=O)(=O)C2(C(=O)NO)CCN(Cc3ccc(-c4ccccc4)cc3)CC2)cc1`: the figures for the log(10^6/IC50) in assay [1], in assay [2] and in assay [3] were 2.88, 4.89 and 5.52, respectively.
Turning to `COc1ccc(S(=O)(=O)C2(C(=O)NO)CCN(C(C)(C)C)CC2)cc1`, the values for the log(10^6/IC50) in assay [2] and in assay [3] were 3.19 and 3.83, respectively.
As for `COc1ccc(S(=O)(=O)C(C)(Cc2ccc(-c3ccccc3)cc2)C(=O)NO)cc1` (stereo unspecified), the log(10^6/IC50) in assay [1] amounted to 3.8; in assay [2], 4.64.
The like results for `O=C(NO)C1(S(=O)(=O)c2ccc(-c3ccco3)cc2)CCN(Cc2ccccc2)CC1` were, in that order, 4.4 and 5.52.
Take `COc1ccc(S(=O)(=O)C2(C(=O)NO)CCN(Cc3ccc(Cl)c(Cl)c3)CC2)cc1`: the figures for the log(10^6/IC50) in assay [1], in assay [2] and in assay [3] were 3.35, 5.22 and 5.7, respectively.
As to `CCN1CCC(C(=O)NO)(S(=O)(=O)c2ccc(Oc3ccc(Cl)cc3)cc2)CC1`, the log(10^6/IC50) in assay [1] came out at 2.76; in assay [2] it was 6; in assay [3], 6.
As to `CCCCOc1ccc(S(=O)(=O)C2(C(=O)NO)CCN(CCCOc3ccccc3)CC2)cc1`, the log(10^6/IC50) in assay [1] is 2.42; in assay [2], 5.3.
`O=C(NO)C1(S(=O)(=O)c2ccc(OCc3ccccc3)cc2)CCN(Cc2ccccc2)CC1`: the log(10^6/IC50) in assay [2] was 5.52.
For `C=C(C)N1CCC(C(=O)NO)(S(=O)(=O)c2ccc(OC)cc2)CC1`, the log(10^6/IC50) is 2.86 in assay [1], 4.41 in assay [2] and 5.15 in assay [3].
As to `CCN(CC)CCOc1ccc(C[C@](C)(C(=O)NO)S(=O)(=O)c2ccc(-c3ccco3)cc2)cc1`, the log(10^6/IC50) in assay [1] was 4.85; in assay [2] it was 5.4; in assay [3] it was 5.7.
With `CCCCOc1ccc(S(=O)(=O)C2(C(=O)NO)CCN(Cc3cccc(OC)c3)CC2)cc1`, the log(10^6/IC50) in assay [1] was 2.82; in assay [2], 5.52.
In the case of `COc1ccc(CN2CCC(C(=O)NO)(S(=O)(=O)c3ccc(Oc4ccc(Cl)cc4)cc3)CC2)cc1`, the values for the log(10^6/IC50) in assay [1] and in assay [2] were 3.31 and 6, respectively.
With `COc1ccc(S(=O)(=O)C2(C(=O)NO)CCN(Cc3ccc4ccccc4c3)CC2)cc1`, the log(10^6/IC50) in assay [1] came to 3.43; in assay [2], 5.3.
For `COc1ccc(S(=O)(=O)[C@](C)(Cc2ccc(OCCN3CCCCC3)cc2)C(=O)NO)cc1`, the log(10^6/IC50) is 3.62 in assay [1] and 5.05 in assay [2].
Regarding `COc1ccc(S(=O)(=O)C2(C(=O)NO)CCN(C(C)C)CC2)cc1`, the log(10^6/IC50) in assay [1] worked out at 2.35; in assay [2], 3.43; in assay [3], 4.47.
With `CCC(CC)COc1ccc(S(=O)(=O)C2(C(=O)NO)CCN(Cc3ccccc3)CC2)cc1`, the log(10^6/IC50) is 2.5 in assay [1], 4.85 in assay [2] and 5.3 in assay [3].
With `CCCCOc1ccc(S(=O)(=O)C2(C(=O)NO)CCN(CCOc3ccccc3)CC2)cc1`, the values for the log(10^6/IC50) in assay [1] and in assay [2] were 2.54 and 5.3, respectively.
Take `COc1ccc(S(=O)(=O)[C@@](C)(CC2CCCCC2)C(=O)NO)cc1`: the log(10^6/IC50) was 3.49 in assay [1], 5.05 in assay [2] and 4.62 in assay [3].
The matching figures for `C#CC[C@](Cc1cccnc1)(C(=O)NO)S(=O)(=O)c1ccc(OC)cc1`: 3.17, 4.08 and 4.49.
With `CCCCN1CCC(C(=O)NO)(S(=O)(=O)c2ccc(Oc3ccc(Cl)cc3)cc2)CC1`, the log(10^6/IC50) in assay [1] was determined as 2.97; in assay [2], 6; in assay [3], 6.
Take `C=C(C)[C@@](C)(C(=O)NO)S(=O)(=O)c1ccc(OC)cc1`: the log(10^6/IC50) in assay [1] was determined as 3.62; in assay [2] it was 4.96; in assay [3], 4.85.
The like results for `CCCCOc1ccc(S(=O)(=O)C2(C(=O)NO)CCN(CC)CC2)cc1` were, in that order, 2.15, 4.37 and 5.7.
Regarding `COc1ccc(CCN2CCC(C(=O)NO)(S(=O)(=O)c3ccc(OC)cc3)CC2)cc1`, the log(10^6/IC50) stood at 3.18 in assay [1], 4.47 in assay [2] and 5.7 in assay [3].
For the compound `CCN(CC)CCOc1ccc(CC(C)(C(=O)NO)S(=O)(=O)c2ccc(OC)cc2)cc1` (single isomer, unassigned), the log(10^6/IC50) in assay [1] is 3.5; in assay [2], 4.89; in assay [3], 4.82.
Regarding `COc1ccc(S(=O)(=O)C2(C(=O)NO)CCN(Cc3cccc(OC)c3)CC2)cc1`, the log(10^6/IC50) in assay [1] was found to be 3.28; in assay [2], 5.05; in assay [3] it was 5.7.
As for `COc1ccc(S(=O)(=O)C2(C(=O)NO)CCN(Cc3ccc(-c4ccccn4)cc3)CC2)cc1`, the log(10^6/IC50) in assay [1] is 3.37; in assay [2] it was 5.22.
Turning to `CCCCOc1ccc(S(=O)(=O)C2(C(=O)NO)CCN(C)CC2)cc1`, the log(10^6/IC50) was 2.47 in assay [1], 5 in assay [2] and 5.7 in assay [3].
As for `O=C(NO)C1(S(=O)(=O)c2ccc(Oc3ccc(Cl)cc3)cc2)CCNCC1`, the log(10^6/IC50) in assay [1] was 2.9; in assay [2], 5.7; in assay [3], 5.7.
As to `CCCCOc1ccc(S(=O)(=O)C2(C(=O)NO)CCN(Cc3ccc(OCCN4CCCCC4)cc3)CC2)cc1`, the log(10^6/IC50) in assay [1] was 2.71; in assay [2] it was 5.7.
Take `COc1ccc(S(=O)(=O)C2(C(=O)NO)CCN(Cc3ccc(F)cc3)CC2)cc1`: the log(10^6/IC50) was 3.18 in assay [1], 4.8 in assay [2] and 5.7 in assay [3].
The matching figures for `COc1ccc(S(=O)(=O)C2(C(=O)NO)CCN(Cc3ccccc3)CC2)cc1`: 3.31, 5 and 5.7.
